Measurements as given in ChEMBL document CHEMBL1201862, “PubChem BioAssay data set” (2004).
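Results reflect a 48-hour exposure of cells in 96-well plates to compound at five concentrations. Abbreviation: GI50, concentration required for 50% inhibition of growth.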 The source made the active and inactive calls. No stated cut-off is given here; in the data, active = GI50 up to about 1.1 µM and inactive = higher.

Columns and labels:
Assay in all cases: NCI tumour cell line growth inhibition, 48 h
OVCAR-8 = test system: OVCAR-8
A498 = test system: A498
COLO 205 = test system: COLO 205
Malme-3M = test system: Malme-3M
M14 = test system: M14
HCT-116 = test system: HCT-116
ACHN = test system: ACHN
EKVX = test system: EKVX
A549 = test system: A549
U-251 = test system: U-251
CCRF-CEM = test system: CCRF-CEM
OVCAR-4 = test system: OVCAR-4
HOP-92 = test system: HOP-92
UACC-257 = test system: UACC-257
MDA-MB-435 = test system: MDA-MB-435
SK-OV-3 = test system: SK-OV-3
MDA-MB-231 = test system: MDA-MB-231
SR = test system: SR
SK-MEL-28 = test system: SK-MEL-28
LXFL 529 = test system: LXFL 529

With `O1C2C1C1OC1C1OC1C1OC21` (configuration not stated) the GI50 (OVCAR-8) was > 100 µM (inactive), the GI50 (A498) was > 100 µM (inactive) and the GI50 (COLO 205) was > 100 µM (inactive). For the same molecule, the GI50 (Malme-3M) was > 100 µM (inactive), the GI50 (M14) was > 100 µM (inactive) and the GI50 (HCT-116) was > 100 µM (inactive). For the same molecule, the GI50 (ACHN) was > 100 µM (inactive), the GI50 (EKVX) was > 100 µM (inactive) and the GI50 (A549) was > 100 µM (inactive). For the same molecule, the GI50 (U-251) was > 100 µM (inactive), the GI50 (CCRF-CEM) was < 0.01 µM (active) and the GI50 (OVCAR-4) was > 100 µM (inactive). The GI50 (HOP-92) was > 100 µM (inactive), the GI50 (UACC-257) was > 100 µM (inactive) and the GI50 (MDA-MB-435) was > 100 µM (inactive). The GI50 (SK-OV-3) was > 100 µM (inactive), the GI50 (MDA-MB-231) was > 100 µM (inactive) and the GI50 (SR) was > 100 µM (inactive). The GI50 (SK-MEL-28) was > 100 µM (inactive).

With `CN1CN(c2ccccc2)C2(CCN(C(=O)OC(C)(C)C)CC2)C1=O` the GI50 (OVCAR-8) was > 100 µM (inactive), the GI50 (A498) was > 100 µM (inactive) and the GI50 (COLO 205) was > 100 µM (inactive). The GI50 (Malme-3M) was > 100 µM (inactive), the GI50 (M14) was > 100 µM (inactive) and the GI50 (HCT-116) was > 100 µM (inactive). The GI50 (ACHN) was > 100 µM (inactive), the GI50 (EKVX) was > 100 µM (inactive) and the GI50 (A549) was > 100 µM (inactive). The GI50 (U-251) was > 100 µM (inactive), the GI50 (CCRF-CEM) was > 100 µM (inactive) and the GI50 (OVCAR-4) was > 100 µM (inactive). For the same molecule, the GI50 (HOP-92) was 32.4 µM (inactive), the GI50 (UACC-257) was > 100 µM (inactive) and the GI50 (MDA-MB-435) was > 100 µM (inactive). For the same molecule, the GI50 (SK-OV-3) was > 100 µM (inactive), the GI50 (MDA-MB-231) was > 100 µM (inactive) and the GI50 (SR) was > 100 µM (inactive). The GI50 (SK-MEL-28) was > 100 µM (inactive).

In the case of `COC(=O)c1cc2c(cc1O)[C@@H](NC(C)=O)CCc1cc(OC)c(OC)c(OC)c1-2`, the GI50 (OVCAR-8) is reported as 0.0577 µM (active), the GI50 (A498) is reported as 0.0568 µM (active) and the GI50 (COLO 205) is reported as 0.029 µM (active). The GI50 (Malme-3M) was 0.0243 µM (active), the GI50 (M14) was 0.0454 µM (active) and the GI50 (HCT-116) was 0.0274 µM (active). For the same molecule, the GI50 (ACHN) was 0.111 µM (active), the GI50 (EKVX) was 0.0415 µM (active) and the GI50 (A549) was 0.0605 µM (active). For the same molecule, the GI50 (U-251) was 0.0342 µM (active), the GI50 (CCRF-CEM) was 0.0492 µM (active) and the GI50 (OVCAR-4) was 0.0432 µM (active). The GI50 (HOP-92) was 0.0647 µM (active), the GI50 (UACC-257) was 0.0715 µM (active) and the GI50 (MDA-MB-435) was 0.0262 µM (active). For the same molecule, the GI50 (SK-OV-3) was 0.0951 µM (active), the GI50 (MDA-MB-231) was 0.0923 µM (active) and the GI50 (SR) was 0.055 µM (active). The GI50 (SK-MEL-28) was 0.0731 µM (active).

`Nc1cccc(CCN2CCN(CCCc3ccccc3)CC2)c1` was tested, and the GI50 (OVCAR-8) was 22.6 µM (inactive), the GI50 (A498) was 47.5 µM (inactive) and the GI50 (COLO 205) was 19.5 µM (inactive). For the same molecule, the GI50 (Malme-3M) was 21 µM (inactive), the GI50 (M14) was 17.6 µM (inactive) and the GI50 (HCT-116) was 17.6 µM (inactive). For the same molecule, the GI50 (ACHN) was > 100 µM (inactive), the GI50 (EKVX) was > 100 µM (inactive) and the GI50 (A549) was 34.4 µM (inactive). For the same molecule, the GI50 (U-251) was 46.2 µM (inactive), the GI50 (CCRF-CEM) was 25.8 µM (inactive) and the GI50 (OVCAR-4) was 39.9 µM (inactive). For the same molecule, the GI50 (HOP-92) was 4.11 µM (inactive), the GI50 (UACC-257) was 24.2 µM (inactive) and the GI50 (MDA-MB-435) was 18.6 µM (inactive). The GI50 (SK-OV-3) was > 100 µM (inactive), the GI50 (MDA-MB-231) was 36.5 µM (inactive) and the GI50 (SR) was 19.2 µM (inactive). For the same molecule, the GI50 (SK-MEL-28) was 27.5 µM (inactive).

`O=C1CC(n2cccc2)c2c(Br)sc(Br)c21` (configuration not stated) was tested, and the GI50 (OVCAR-8) was 15.2 µM (inactive), the GI50 (A498) was 24.9 µM (inactive) and the GI50 (COLO 205) was 16.9 µM (inactive). For the same molecule, the GI50 (Malme-3M) was 18.5 µM (inactive), the GI50 (M14) was 14.9 µM (inactive) and the GI50 (HCT-116) was 15.3 µM (inactive). For the same molecule, the GI50 (ACHN) was 17.5 µM (inactive), the GI50 (EKVX) was 16 µM (inactive) and the GI50 (A549) was 21 µM (inactive). For the same molecule, the GI50 (U-251) was 15.2 µM (inactive), the GI50 (CCRF-CEM) was 6.35 µM (inactive) and the GI50 (OVCAR-4) was 16.7 µM (inactive). The GI50 (HOP-92) was 16.1 µM (inactive), the GI50 (UACC-257) was 15.1 µM (inactive) and the GI50 (MDA-MB-435) was 14.4 µM (inactive). For the same molecule, the GI50 (SK-OV-3) was 19.4 µM (inactive), the GI50 (MDA-MB-231) was 15.7 µM (inactive) and the GI50 (SR) was 3.89 µM (inactive). For the same molecule, the GI50 (SK-MEL-28) was 20.3 µM (inactive).

For `O=S1(=O)NN=C(NCc2ccc(Cl)cc2)c2ccccc21`, the GI50 (OVCAR-8) was > 100 µM (inactive), the GI50 (A498) was > 100 µM (inactive) and the GI50 (COLO 205) was > 100 µM (inactive). For the same molecule, the GI50 (Malme-3M) was > 100 µM (inactive), the GI50 (M14) was 74 µM (inactive) and the GI50 (HCT-116) was > 100 µM (inactive). The GI50 (ACHN) was > 100 µM (inactive), the GI50 (LXFL 529) was 61.1 µM (inactive) and the GI50 (EKVX) was 46.9 µM (inactive). The GI50 (A549) was > 100 µM (inactive), the GI50 (U-251) was 50.4 µM (inactive) and the GI50 (CCRF-CEM) was 45.2 µM (inactive). The GI50 (OVCAR-4) was > 100 µM (inactive), the GI50 (HOP-92) was 35.3 µM (inactive) and the GI50 (UACC-257) was > 100 µM (inactive).

`C=CC1=CSNN1` was tested, and the GI50 (OVCAR-8) was > 100 µM (inactive), the GI50 (A498) was > 100 µM (inactive) and the GI50 (COLO 205) was > 100 µM (inactive). For the same molecule, the GI50 (Malme-3M) was > 100 µM (inactive), the GI50 (M14) was > 100 µM (inactive) and the GI50 (ACHN) was > 100 µM (inactive). For the same molecule, the GI50 (LXFL 529) was > 100 µM (inactive), the GI50 (EKVX) was > 100 µM (inactive) and the GI50 (A549) was > 100 µM (inactive). The GI50 (U-251) was > 100 µM (inactive), the GI50 (CCRF-CEM) was > 100 µM (inactive) and the GI50 (OVCAR-4) was > 100 µM (inactive). For the same molecule, the GI50 (HOP-92) was > 100 µM (inactive), the GI50 (UACC-257) was > 100 µM (inactive) and the GI50 (SK-OV-3) was > 100 µM (inactive). The GI50 (SK-MEL-28) was > 100 µM (inactive).

`O=C(O)CN(c1ccc(F)cc1)S(=O)(=O)c1ccccc1` was tested, and the GI50 (OVCAR-8) was > 100 µM (inactive), the GI50 (A498) was > 100 µM (inactive) and the GI50 (COLO 205) was > 100 µM (inactive). The GI50 (Malme-3M) was > 100 µM (inactive), the GI50 (M14) was > 100 µM (inactive) and the GI50 (ACHN) was > 100 µM (inactive). For the same molecule, the GI50 (LXFL 529) was > 100 µM (inactive), the GI50 (EKVX) was > 100 µM (inactive) and the GI50 (A549) was > 100 µM (inactive). The GI50 (U-251) was > 100 µM (inactive), the GI50 (CCRF-CEM) was > 100 µM (inactive) and the GI50 (OVCAR-4) was > 100 µM (inactive). For the same molecule, the GI50 (HOP-92) was > 100 µM (inactive), the GI50 (UACC-257) was > 100 µM (inactive) and the GI50 (SK-OV-3) was > 100 µM (inactive). The GI50 (SK-MEL-28) was > 100 µM (inactive).
